Source: ChEMBL document CHEMBL5614416, “Discovery of novel thiophene[3,2-d]pyrimidine-based tubulin inhibitors with enhanced antitumor efficacy for combined use with anti-pd-l1 immunotherapy in melanoma” (Eur J Med Chem, 2024)
Activity calls are given as the source filed them. No cut-off for these calls is given here.

Tests used:
[1] = Toxicity in C57 mouse xenografted with mouse B16-F10 cells assessed as monocytes count at 7 mg/kg, ip qd for 12 days by biochemical analysis (reference value: 0.080 to 0.610 10^9/L); format: organism-based; settings: in vivo, 288 h, time 12 day
[2] = Toxicity in C57 mouse xenografted with mouse B16-F10 cells assessed as morphological abnormality in kidney at 3.5 mg/kg, ip qd for 12 days in presence of NP-19 by H and E staining based analysis; format: organism-based; settings: in vivo, 288 h, time 12 day
[3] = Toxicity in C57 mouse xenografted with mouse B16-F10 cells assessed as neutrophil count at 3.5 mg/kg, ip qd for 12 days in presence of NP-19 by biochemical analysis (reference value: 2.130 to 5.46 10^9/L); format: organism-based; settings: in vivo, 288 h, time 12 day
[4] = Toxicity in C57 mouse xenografted with mouse B16-F10 cells assessed as RDW-CV at 7 mg/kg, ip qd for 12 days by biochemical analysis (reference value: 14.300 to 14.300); format: organism-based; settings: in vivo, 288 h, time 12 day
B16-F10 [5] = assay: Induction of cell cycle arrest in mouse B16-F10 cells assessed as accumulation of cells at S phase at 0.5 nM incubated for 12 hrs by flow cytometry (reference value: 30.5 %); format: functional
B16-F10 [6] = assay: Induction of apoptosis in mouse B16-F10 cells assessed as decrease in Bcl-2 level upto 30 nM incubated for 24 hrs by Western blot analysis; format: functional, cell-based
B16-F10 [7] = assay: Antiproliferative activity against mouse B16-F10 cells incubated for 48 hrs by MTT assay; format: functional, cell-based; settings: B16-F10, 48 h
HeLa = assay: Antiproliferative activity against human HeLa cells incubated for 48 hrs by MTT assay; format: functional, cell-based
[8] = Inhibition of pig brain tubulin polymerization by spectrophotometric method
[9] = Toxicity in C57 mouse xenografted with mouse B16-F10 cells assessed as lymphocytes level at 7 mg/kg, ip qd for 12 days by biochemical analysis (reference value: 7.300 to 65.500 %); format: organism-based; settings: in vivo, 288 h, time 12 day
B16-F10 [10] = assay: Inhibition of cell migration in mouse B16-F10 cells assessed as reduction in wound closure incubated for 24 hrs by wound healing assay; format: functional, cell-based
MCF7 [11] = assay: Inhibition of cell migration in human MCF7 cells assessed as migration rate at 2 nM incubated for 24 hrs by wound healing assay (reference value: 18.1 %); format: functional; set-up: scale not given: the % may be the effect or the level left
B16-F10 [12] = assay: Induction of apoptosis in mouse B16-F10 cells assessed as necrotic cells at 0.5 nM incubated for 12 hrs by Annexin V-FITC/PI staining based flow cytometry (reference value: 0.25 %); format: functional
[13] = Toxicity in C57 mouse xenografted with mouse B16-F10 cells assessed as morphological abnormality in heart at 3.5 mg/kg, ip qd for 12 days in presence of NP-19 by H and E staining based analysis; format: organism-based; settings: in vivo, 288 h, time 12 day
[14] = Toxicity in C57 mouse xenografted with mouse B16-F10 cells assessed as MCV level at 7 mg/kg, ip qd for 12 days by biochemical analysis (reference value: 15.800 to 48.900 fL); format: organism-based; settings: in vivo, 288 h, time 12 day
B16-F10 [15] = assay: Induction of cell cycle arrest in mouse B16-F10 cells assessed as accumulation of cells at G1 phase at 0.5 nM incubated for 12 hrs by flow cytometry (reference value: 52.0 %); format: functional
[16] = Toxicity in C57 mouse xenografted with mouse B16-F10 cells assessed as morphological abnormality in kidney at 7 mg/kg, ip qd for 12 days by H and E staining based analysis; format: organism-based; settings: in vivo, 288 h, time 12 day
[17] = Toxicity in C57 mouse xenografted with mouse B16-F10 cells assessed as eosinophil level at 7 mg/kg, ip qd for 12 days by biochemical analysis (reference value: 0.700 to 1.000 %); format: organism-based; settings: in vivo, 288 h, time 12 day
MCF7 [18] = assay: Inhibition of cell migration in human MCF7 cells assessed as migration rate at 1 nM incubated for 24 hrs by wound healing assay (reference value: 18.1 %); format: functional; set-up: scale not given: the % may be the effect or the level left
[19] = Toxicity in C57 mouse xenografted with mouse B16-F10 cells assessed as morphological abnormality in liver at 7 mg/kg, ip qd for 12 days by H and E staining based analysis; format: organism-based; settings: in vivo, 288 h, time 12 day
B16-F10 [20] = assay: Induction of cell cycle arrest in mouse B16-F10 cells assessed as accumulation of cells at S phase at 1 nM incubated for 12 hrs by flow cytometry (reference value: 30.5 %); format: functional
[21] = Toxicity in C57 mouse xenografted with mouse B16-F10 cells assessed as body weight change at 3.5 mg/kg, ip qd for 12 days in presence of NP-19; format: organism-based; settings: in vivo, 288 h, time 12 day
B16-F10 [22] = assay: Antitumor activity against mouse B16-F10 cells xenografted in C57 mouse at 7 mg/kg, ip qd for 12 days relative to control; format: functional; settings: B16-F10, 288 h, time 12 day, read-out: TGI
B16-F10 [23] = assay: Induction of apoptosis in mouse B16-F10 cells assessed as early apoptotic cells at 1 nM incubated for 12 hrs by Annexin V-FITC/PI staining based flow cytometry (reference value: 3.81 %); format: functional
B16-F10 [24] = assay: Induction of cell cycle arrest in mouse B16-F10 cells assessed as accumulation of cells at G2 phase at 1 nM incubated for 12 hrs by flow cytometry (reference value: 13.6 %); format: functional
[25] = Toxicity in C57 mouse xenografted with mouse B16-F10 cells assessed as RDW-CV at 3.5 mg/kg, ip qd for 12 days in presence of NP-19 by biochemical analysis (reference value: 14.300 to 14.300); format: organism-based; settings: in vivo, 288 h, time 12 day
MCF7 [26] = assay: Induction of apoptosis in human MCF7 cells assessed as increase in Bax level upto 30 nM incubated for 24 hrs by Western blot analysis; format: functional, cell-based
[27] = Toxicity in C57 mouse xenografted with mouse B16-F10 cells assessed as eosinophil level at 3.5 mg/kg, ip qd for 12 days in presence of NP-19 by biochemical analysis (reference value: 0.700 to 1.000 %); format: organism-based; settings: in vivo, 288 h, time 12 day
B16-F10 [28] = assay: Induction of apoptosis in mouse B16-F10 cells assessed as late apoptotic cells at 2 nM incubated for 12 hrs by Annexin V-FITC/PI staining based flow cytometry (reference value: 2.39 %); format: functional
B16-F10 [29] = assay: Induction of apoptosis in mouse B16-F10 cells assessed as early apoptotic cells at 0.5 nM incubated for 12 hrs by Annexin V-FITC/PI staining based flow cytometry (reference value: 3.81 %); format: functional
[30] = Toxicity in C57 mouse xenografted with mouse B16-F10 cells assessed as morphological abnormality in heart at 7 mg/kg, ip qd for 12 days by H and E staining based analysis; format: organism-based; settings: in vivo, 288 h, time 12 day
B16-F10 [31] = assay: Induction of apoptosis in mouse B16-F10 cells assessed as necrotic cells at 2 nM incubated for 12 hrs by Annexin V-FITC/PI staining based flow cytometry (reference value: 0.25 %); format: functional
[32] = Toxicity in C57 mouse xenografted with mouse B16-F10 cells assessed as MPV level at 3.5 mg/kg, ip qd for 12 days in presence of NP-19 by biochemical analysis (reference value: 6.200 to 15.000); format: organism-based; settings: in vivo, 288 h, time 12 day
B16-F10 [33] = assay: Inhibition of cell migration in mouse B16-F10 cells assessed as migration rate at 4 nM incubated for 24 hrs by wound healing assay (reference value: 61.1 %); format: functional; set-up: scale not given: the % may be the effect or the level left

## Cc1nc(N(C)c2ccc3c(ccn3C)c2)c2sccc2n1
[1]
  Activity: 0.01 10^9/L
[2]
  Activity: Non-Toxic
[3]
  Activity: 1.38 10^9/L
[4]
  Activity: 14.2
B16-F10 [5]
  Activity: 15.9%
B16-F10 [6]
  Activity: Active
B16-F10 [7]
  IC50: 11.7 nM
HeLa
  IC50: 5.37 nM
[8]
  IC50: 2540 nM
[9]
  Activity: 2.2%
B16-F10 [10]
  inhibition: Dose-Dependent Effect
MCF7 [11]
  Activity: 8.84%
B16-F10 [12]
  Activity: 1.44%
[13]
  Activity: Non-Toxic
[14]
  Activity: 15.8 fL
B16-F10 [15]
  Activity: 21.3%
[16]
  Activity: Non-Toxic
[17]
  Activity: 0.3%
MCF7 [18]
  Activity: 15.7%
[19]
  Activity: Non-Toxic
B16-F10 [20]
  Activity: 22.3%
[21]
  Activity: Non-Toxic
B16-F10 [22]
  inhibition in vivo at 7 mg/kg: 63.3%
B16-F10 [23]
  Activity: 11%
B16-F10 [24]
  Activity: 61.9%
[25]
  Activity: 14
MCF7 [26]
  Activity: Active
[27]
  Activity: 0.3%
B16-F10 [28]
  Activity: 8.65%
B16-F10 [29]
  Activity: 11.2%
[30]
  Activity: Non-Toxic
B16-F10 [31]
  Activity: 1.76%
[32]
  Activity: 6
B16-F10 [33]
  Activity: 5.23%
